Measured values as given in patent publication US8598119B2, “Methods and compositions for sleep disorders and other disorders” (priority 2008, dated 2013).
“Also recorded” adds a separate entry of the source. One block for each compound: values may come before it.

Key:
socially-defeated mice [1] = conditions: treated daily for 30 days; cited from earlier work
human 5-HT2C receptors = human 5-HT2C receptors (Homo sapiens (Human), UniProt P28335, I156V/I160V); test: biochemical
[2] = molecular target: SERT (rat forebrain synaptosomal membrane) (Rattus norvegicus (Rat), UniProt P31652); test: Transporter SERT radioligand binding assay in rat forebrain, [3H]-N-Methyl-Citalopram; conditions: Table 2
[3] = tested on: patients with sleep maintenance insomnia (SMI); test: Clinical trial, overnight PSG in patients with sleep maintenance insomnia; format: in vivo, human; conditions: for SWS, Mean Change from Baseline / Total Sleep Time, Mean Change from Baseline / Total Time Awake, Mean Change from Baseline / WASO, Mean Change from Baseline: n = 18, PSG
H1 receptors = H1 receptors (Homo sapiens (Human), UniProt P35367); test: biochemical
Striatal D2 receptor = Striatal D2 receptor (Homo sapiens (Human), UniProt P14416); test: Striatal D2 receptor occupancy by positron emission tomography in healthy volunteers; format: in vivo; conditions: PET
[4] = tested on: unilateral 6-OHDA-lesioned mice; test: L-DOPA induced dyskinesia (AIMS) in unilateral 6-OHDA-lesioned mice; format: in vivo, mouse
From the text: Day 1-Day 9: Treatment with L-DOPA/benserazide
Day 10: Treatment with L-DOPA/benserazide+Evaluation of AIMs (dyskinesia)
Experiment 1 (Chronic): Development of Dyskinesia
Day 1-Day 10: Treatment with L-DOPA/benserazide plus ITI-007 ITI-007PD.
Day 11: Treatment with L-DOPA/benserazide+Evaluation of AIMs (dyskinesia)
Experiment 2 (Acute): Expression of dyskinesia
Day 1-Day 10: Treatment with L-DOPA/benserazide
Day 11: Treatment with L-DOPA/benserazide plus ITI-007+Evaluation of AIMs (dyskinesia)
The compound effectively reduces (by ˜50%) the development of dyskinetic behaviors in PD mice (i.e., Chronic treatment group). It has a less robust but still significant effect (by ˜25% reduction) on established dyskinetic behaviors (i.e., Acute treatment group). […] In addition to reducing L-DOPA-Induced Dyskinesias, as described above, the Compounds of Formula I will also reduce PD psychosis and depression, improve poor night time sleep and reduce excessive daytime sleepiness.

socially-defeated mice [5] = test: Social defeat (resident-intruder) mouse model for depression; format: in vivo
[6] = 1, 5, 10 mg single doses, in words

Sequence of Striatal D2 receptor (P14416 whole entry): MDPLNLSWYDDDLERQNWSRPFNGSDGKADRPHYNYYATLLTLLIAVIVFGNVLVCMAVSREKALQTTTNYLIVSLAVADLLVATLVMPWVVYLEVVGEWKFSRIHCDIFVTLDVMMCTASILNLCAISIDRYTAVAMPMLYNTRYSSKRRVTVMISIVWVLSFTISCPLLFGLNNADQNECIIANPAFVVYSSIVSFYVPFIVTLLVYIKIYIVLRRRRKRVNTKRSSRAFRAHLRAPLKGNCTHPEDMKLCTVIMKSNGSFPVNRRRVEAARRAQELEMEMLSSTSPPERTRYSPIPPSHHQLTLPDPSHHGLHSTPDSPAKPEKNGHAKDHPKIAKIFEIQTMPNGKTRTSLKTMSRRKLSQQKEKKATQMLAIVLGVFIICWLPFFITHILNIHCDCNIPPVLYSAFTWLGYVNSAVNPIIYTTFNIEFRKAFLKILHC
Sequence of SERT (rat forebrain synaptosomal membrane) (P31652 whole entry): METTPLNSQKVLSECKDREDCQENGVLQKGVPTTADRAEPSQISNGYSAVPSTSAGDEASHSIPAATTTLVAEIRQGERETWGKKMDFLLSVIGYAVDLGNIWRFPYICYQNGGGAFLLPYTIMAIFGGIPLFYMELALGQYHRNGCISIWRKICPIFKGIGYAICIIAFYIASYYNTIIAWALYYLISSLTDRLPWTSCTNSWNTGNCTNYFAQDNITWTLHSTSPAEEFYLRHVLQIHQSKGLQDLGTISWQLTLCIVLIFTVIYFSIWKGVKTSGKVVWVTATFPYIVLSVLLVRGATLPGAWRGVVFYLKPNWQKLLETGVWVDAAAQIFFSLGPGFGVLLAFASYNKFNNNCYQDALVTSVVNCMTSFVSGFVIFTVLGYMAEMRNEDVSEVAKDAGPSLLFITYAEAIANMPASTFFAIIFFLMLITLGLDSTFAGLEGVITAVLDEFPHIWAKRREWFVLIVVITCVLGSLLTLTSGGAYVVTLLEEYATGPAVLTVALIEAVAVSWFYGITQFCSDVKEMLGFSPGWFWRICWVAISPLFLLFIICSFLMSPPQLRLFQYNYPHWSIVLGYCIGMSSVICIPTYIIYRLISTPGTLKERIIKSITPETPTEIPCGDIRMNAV
Sequence of H1 receptors (P35367 whole entry): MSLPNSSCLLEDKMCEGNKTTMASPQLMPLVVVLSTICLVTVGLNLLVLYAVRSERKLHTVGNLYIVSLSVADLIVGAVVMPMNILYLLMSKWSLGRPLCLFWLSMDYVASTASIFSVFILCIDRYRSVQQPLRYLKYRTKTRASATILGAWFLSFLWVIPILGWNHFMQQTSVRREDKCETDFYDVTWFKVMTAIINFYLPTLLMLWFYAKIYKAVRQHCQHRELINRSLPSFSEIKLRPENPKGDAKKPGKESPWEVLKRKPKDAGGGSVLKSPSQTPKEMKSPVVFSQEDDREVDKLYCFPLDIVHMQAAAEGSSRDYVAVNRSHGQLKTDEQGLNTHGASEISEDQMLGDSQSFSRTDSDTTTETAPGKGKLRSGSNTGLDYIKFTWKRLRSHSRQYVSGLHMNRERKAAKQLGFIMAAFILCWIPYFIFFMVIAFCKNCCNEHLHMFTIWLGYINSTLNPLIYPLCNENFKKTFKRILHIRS
Sequence of human 5-HT2C receptors (P28335 33-458 I156V/I160V): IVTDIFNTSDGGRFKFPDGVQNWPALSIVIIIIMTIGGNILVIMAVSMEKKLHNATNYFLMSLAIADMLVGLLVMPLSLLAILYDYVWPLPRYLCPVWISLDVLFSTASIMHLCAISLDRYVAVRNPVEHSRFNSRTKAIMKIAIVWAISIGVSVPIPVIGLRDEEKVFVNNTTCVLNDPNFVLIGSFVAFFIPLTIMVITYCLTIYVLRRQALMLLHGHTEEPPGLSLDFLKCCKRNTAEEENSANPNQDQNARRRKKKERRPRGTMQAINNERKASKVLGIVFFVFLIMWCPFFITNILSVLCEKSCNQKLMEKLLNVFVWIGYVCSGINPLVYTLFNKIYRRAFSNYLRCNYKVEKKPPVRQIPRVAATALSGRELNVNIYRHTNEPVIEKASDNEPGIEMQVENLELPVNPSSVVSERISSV

SMILES: CNCCC(Oc1ccc(C(F)(F)F)cc1)c1ccccc1 (centres unmarked) [fluoxetine]
- social interaction behavior of socially defeated mice after chronic anti-depressant (socially-defeated mice [1]): improved social interaction behavior

- Ki (human 5-HT2C receptors): 173 nM
- Ki [2]: 46 nM
- early-morning rebound insomnia ([3]; human, in vivo): no early-morning rebound insomnia
- Ki (H1 receptors): > 100 nM
- % Striatal D2 Occupancy (Striatal D2 receptor; 20 mg): ~20%
- % Striatal D2 Occupancy (Striatal D2 receptor; 30 mg): ~32%
SMILES: CN1CCN2c3c(cccc31)[C@@H]1CN(CCCC(=O)c3ccc(F)cc3)CC[C@@H]12 [Compound A, 1-(4-Fluoro-phenyl)-4-((6bR,10aS)-3-methyl-2,3,6b,9,10,10a-hexahydro-1H,7H-pyrido[3′,4′,4,5]pyrrolo[1,2,3-de]quinoxalin-8-yl)-butan-1-one]
- SWS, Mean Change from Baseline ([3]; 1 mg single dose): 0.47 min
- Total Sleep Time, Mean Change from Baseline ([3]; 1 mg single dose): 4.17 min
- Total Time Awake, Mean Change from Baseline ([3]; 1 mg single dose): -4.08 min
- WASO, Mean Change from Baseline ([3]; 1 mg single dose): -12.69 min
- SWS, Mean Change from Baseline ([3]; 5 mg single dose): 5.53 min
- Total Sleep Time, Mean Change from Baseline ([3]; 5 mg single dose): 0.56 min
- Total Time Awake, Mean Change from Baseline ([3]; 5 mg single dose): -1.42 min
- WASO, Mean Change from Baseline ([3]; 5 mg single dose): -14.31 min
- SWS, Mean Change from Baseline ([3]; 10 mg single dose): 8.94 min
- Total Sleep Time, Mean Change from Baseline ([3]; 10 mg single dose): 27.61 min
- Total Time Awake, Mean Change from Baseline ([3]; 10 mg single dose): -28.31 min
- WASO, Mean Change from Baseline ([3]; 10 mg single dose): -33.22 min
- effect on slow wave sleep (SWS) [3, 6]: increases SWS; also recorded: dose-dependently increase slow wave sleep
- effect on wake time after sleep onset (WASO) [3, 6]: dose-dependently decreases WASO; also recorded: dose-dependently decreases wake after sleep onset
- duration of REM ([3]; PSG): no change in duration of REM; also recorded: did not suppress REM sleep
- latency to REM ([3]; PSG): no change on latency to REM
- latency to fall asleep ([3]; PSG): does not impair latency to fall asleep
- slow wave sleep by part of the night ([3]; first and second quarter of the night): increases slow wave sleep during the first half of the night
- dose-related adverse events or changes in safety parameters ([3]; human, in vivo): no dose-related adverse events or changes in safety parameters
- serious adverse events ([3]; human, in vivo): no serious adverse events
- total sleep time ([3]; in words): increase total sleep time
- cognitive function the morning after PSG (DSST, WPAT, Leeds Psychomotor Test) ([3]; next day): does not impair cognitive function; also recorded: do not impair next-day cognitive function
- sleep architecture ([3]; over the course of the night): preserves normal sleep architecture over the course of the night
- safety and tolerability ([3]; patients with sleep maintenance insomnia): safe and well tolerated; also recorded: safe and well-tolerated
- stage 2 sleep by part of the night ([3]; third and fourth quarter of the night): increases stage 2 sleep during the second half of the night
- reduction of development of dyskinetic behaviors (Chronic treatment group) ([4]; 0.3 mg/kg IP co-administered with levodopa 10 mg/kg IP, chronic): ~50%
- reduction of established dyskinetic behaviors (Acute treatment group) ([4]; 0.3 mg/kg IP with levodopa 10 mg/kg IP, acute): ~25%
- time in the Interaction Zone, socially-defeated mice (socially-defeated mice [5]; 1 mg/kg IP once daily for 29 d, tested day 30, versus socially-defeated mice receiving vehicle): almost twice as much time in the Interaction Zone
- general health and weight gain, normal mice (socially-defeated mice [5]; normal mice treated once daily for 30 d, 1 mg/kg IP): healthy and normal-appearing and gained weight normally
- time in the Interaction Zone, normal mice (socially-defeated mice [5]; normal mice, 1 mg/kg IP once daily, versus vehicle): comparable time in the Interaction Zone as mice receiving the vehicle injection

SMILES: CN(C)CCCN1c2ccccc2CCc2ccccc21 [IMI, imipramine]
- social interaction behavior of socially defeated mice after chronic anti-depressant (socially-defeated mice [1]): improved social interaction behavior
